Test results reported in US9504747B2, “Lipids and lipid compositions for the delivery of active agents” (Novartis AG, priority 2013, dated 2016).
Where “and” joins values, the source holds several entries; their conditions need not be identical. Equal entries are not always repeated.

Test system: respiratory syncytial virus F protein
Test: Immunization studies: anti-RSV-F titers after liposome-delivered vA317 self-replicating RNA
Assay type: in vivo
Conditions: BALB/c mice, liposomes with 0.1 μg vA317 replicon (naked control 1 μg); for anti-RSV-F titer 4wp2 pool 1 / anti-RSV-F titer 4wp2 pool 2: 4 weeks after second dose; for anti-RSV-F titer 2wp1 pool 1 / anti-RSV-F titer 2wp1 pool 2: 2 weeks after first dose; for anti-RSV-F titer 2wp2 pool 1 / anti-RSV-F titer 2wp2 pool 2: 2 weeks after second dose
Procedure: BALB/c were immunized with liposomes comprising DSPC, cholesterol, and various lipids of the invention (or, for comparison, the cationic lipid 1,2-dilinoleyloxy-N,N-dimethyl-3-aminopropane or ‘DLinDMA’). The liposomes encapsulated 0.1 μg of “vA317” self-replicating RNA replicon which encodes respiratory syncytial virus F protein (see WO2012/031043). […] Doses were given either on days 0 & 21 or days 0 & 42. Immune responses were assessed 2 weeks after each dose (2wp1, 2wp2), and in some cases also at 4 weeks after the second dose (4wp2). Four series of experiments were performed, each with its own naked control.

Compound	anti-RSV-F titer 4wp2 pool 1 (Course A = days 0 & 21)	anti-RSV-F titer 4wp2 pool 2 (Course A = days 0 & 21)	anti-RSV-F titer 2wp1 pool 1 (Course B = days 0 & 42)	anti-RSV-F titer 2wp1 pool 2 (Course B = days 0 & 42)	anti-RSV-F titer 2wp2 pool 1 (Course B = days 0 & 42)	anti-RSV-F titer 2wp2 pool 2 (Course B = days 0 & 42)	anti-RSV-F titer 4wp2 pool 1 (Course B = days 0 & 42)	anti-RSV-F titer 4wp2 pool 2 (Course B = days 0 & 42)	anti-RSV-F titer 2wp1 pool 1 (Course A = days 0 & 21)	anti-RSV-F titer 2wp1 pool 2 (Course A = days 0 & 21)	anti-RSV-F titer 2wp2 pool 1 (Course A = days 0 & 21)	anti-RSV-F titer 2wp2 pool 2 (Course A = days 0 & 21)
CCCCC/C=C\C/C=C\CCCCCCCCOCC(CN(C)C)OCCCCCCCC/C=C\C/C=C\CCCCC (stereo not shown) [DLinDMA, 1,2-dilinoleyloxy-N,N-dimethyl-3-aminopropane, reference compound]	26504 and 50799	28008 and 35992	13	4	18290	5538	13936	7020				
CCCCCCCC/C=C\CCCCCCCCOc1cc(OCCCCCCCC/C=C\CCCCCCCC)cc(C2OCC(CN3CCCC3)O2)c1 (stereo not shown) [Example 9]									1832	1352	29707	18788
CCCCCCCC/C=C\CCCCCCCCOc1cc(OCCCCCCCC/C=C\CCCCCCCC)cc(C2OCC(COC(=O)CN(C)C)O2)c1 (stereo not shown) [Example 12]			88	128	4550	4828	4787	3972				
CCCCC/C=C\C/C=C\CCCCCCCCOc1cc(COC(=O)CCCN(C)C)cc(OCCCCCCCC/C=C\C/C=C\CCCCC)c1 [Example 13]									495	620	7157	12316
CCCCC/C=C\C/C=C\CCCCCCCCOc1cc(C(=O)OCCCN(C)C)cc(OCCCCCCCC/C=C\C/C=C\CCCCC)n1 [Example 25]	2850	1767							1217	1883	1611	1156
CCCCC/C=C\C/C=C\CCCCCCCC(=O)OCc1cc(COC(=O)CCCCCCC/C=C\C/C=C\CCCCC)cc(COC(=O)CCN(C)C)c1 [Example 29]	23930	37278							2101	3584	12529	18669
CCCCC/C=C\C/C=C\CCCCCCCCNC(=O)c1cc(COC(=O)CCCN(C)C)cc(C(=O)NCCCCCCCC/C=C\C/C=C\CCCCC)c1 [Example 66]	75	75							75	75	75	75
CCCCC/C=C\C/C=C\CCCCCCCCOc1cc(COC(=O)OCCCN(C)C)cc(OCCCCCCCC/C=C\C/C=C\CCCCC)c1 [Example 68]	12963	17734							1031	494	11315	7800
CCCCC/C=C\C/C=C\CCCCCCCC(=O)OCc1cc(COC(=O)CCCCCCC/C=C\C/C=C\CCCCC)cc(COC(=O)OCCN(C)C)c1 [Example 70]	18779	18358							1416	3110	31550	20124
